Laboratory results taken from patent publication US20130178413A1, “HCV NS3 PROTEASE INHIBITORS” (priority 2010, published 2013).
Read-outs that look alike come from different tables or passages of the source.

Legend:
[1] = molecular target: NS3/4A protease gt 1b A156V (Hepatitis C virus genotype 1b, UniProt P26663, A1182V); experiment: HCV NS3 protease time-resolved fluorescence (TRF) assay, NS3/4A inhibitory activity (Ki), gt 1b A156V mutant; format: biochemical, hepatitis C virus (HCV)
How it was run: (§1)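 NS3/4A protease (gt 1b, 1b A156V, 3a) pre-incubated 30 min with inhibitor in 50 mM HEPES pH 7.5, 150 mM NaCl, 15% glycerol, 0.15% Triton X-100, 10 mM DTT, 0.1% PEG 8000; 100 nM TRF peptide substrate, 1 h at room temperature, quenched with MES pH 5.5. Time-resolved fluorescence (ex 340/em 615 nm); four-parameter IC50 converted to Ki via IC50=Ki(1+[S]/KM).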

[2] = molecular target: NS3/4A protease gt 1b (Hepatitis C virus genotype 1b, UniProt P26663); experiment: HCV NS3 protease time-resolved fluorescence (TRF) assay, NS3/4A inhibitory activity (Ki), gt 1b; format: biochemical; details: genotype 1b NS3/4A; read-out: Enzyme Activity gt 1b Ki
How it was run: as §1

[3] = tested on: gt 1b Replicon; experiment: HCV replicon assay, compound inhibitory potency (Replicon EC50); format: cell-based; details: Hepatitis C virus, GT1B
How it was run: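 Stable replicon-harboring cells (neomycin phosphotransferase, some luciferase:Neor fusion) plated with compound dilution series without G418, incubated 24-48 h. Read-out: RNA by 32P-probe protection or TaqMan normalized to cyclophilin A RNA, or luciferase activity; EC50 as percent of DMSO control, four-parameter fit.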

[4] = molecular target: NS3/4A protease gt 3a (Hepatitis C virus genotype 3a, UniProt Q81258); experiment: HCV NS3 protease time-resolved fluorescence (TRF) assay, NS3/4A inhibitory activity (Ki), gt 3a; format: biochemical; details: genotype 3a NS3/4A; read-out: Enzyme Activity gt 3a Ki
How it was run: as §1

[5] = 10% Fetal Bovine Serum, read-out: gt 1b Replicon EC50 10% FBS
[6] = 50% Normal Human Serum, read-out: gt 1b Replicon EC50 50% NHS

| Compound | Ki [1] [nM] | Ki [2] [nM] | EC50 [3, 5] [nM] | EC50 [3, 6] [nM] | Ki [4] [nM] |
| --- | --- | --- | --- | --- | --- |
| C=C[C@@H]1C[C@]1(NC(=O)[C@@H]1C[C@@H]2CN1C(=O)[C@H](C1CCCC1)NC(=O)O[C@]1(C)CCC[C@H]1CCCCCc1nc3ccc(OC)cc3cc1O2)C(=O)NS(=O)(=O)C1CC1 [Example I-3, (1R,18R,22R,26S,29S)-26-Cyclopentyl-N-((1R,2S)-1-{[(cyclopropylsulfonyl)amino]carbonyl}-2-vinylcyclopropyl)-7-methoxy-22-methyl-24,27-dioxo-2,23-dioxa-11,25,28-triazapentacyclo[26.2.1.0^3,12.0^5,10.0^18,22]hentriaconta-3(12),4,5,7,9,10-hexaene-29-carboxamide] | 3.3 | 0.03 | 6 | 23 | 0.5 |
| C=C[C@@H]1C[C@]1(NC(=O)[C@@H]1C[C@@H]2CN1C(=O)[C@H](C1CCCC1)NC(=O)O[C@]1(C)C[C@H]1CCCCCc1cccc3c1CN(C3)C(=O)O2)C(=O)NS(=O)(=O)C1CC1 [Example I-13, (1aR,5S,8S,10R,23aR)-5-cyclopentyl-N-{(1R,2S)-1-[(cyclopropylsulfonyl)carbamoyl]-2-ethenylcyclopropyl}-1a-methyl-3,6,12-trioxo-1a,3,4,5,6,9,10, 14,19,20,21,22,23,23a-tetradecahydro-1H,8H-7,10:13,15-dimethano cyclopropa[n][4,13,2,8, 11]benzodioxatriaza cyclodocosine-8(12H)-carboxamide] | 0.4 | 0.02 | 4 | 16 | 32.9 |
| C=C[C@@H]1C[C@]1(NC(=O)[C@@H]1C[C@@H]2CN1C(=O)[C@H](C(C)(C)C)NC(=O)O[C@]1(C)C[C@H]1CCCCCc1nc3ccccc3nc1O2)C(=O)NS(=O)(=O)C1CC1 [Example I-8, (1aR,5S,8S,10R,22aR)-5-tert-butyl-N-{(1R,2S)-1-[(cyclopropylsulfonyl)carbamoyl]-2-ethenylcyclopropyl}-1a-methyl-3,6-dioxo-1,1a,3,4,5,6,9,10,18,19, 20,21,22,22a-tetra decahydro-8H-7,10-methanocyclopropa[18, 19][1,10,3,6]dioxatriaza cyclononadecino[11,12-b]quinoxaline-8-carboxamide] | 11.5 | 0.02 | 2 | 6 | 0.5 |
| CC[C@@H]1C[C@]1(NC(=O)[C@@H]1C[C@@H]2CN1C(=O)[C@H](C(C)(C)C)NC(=O)O[C@]1(C)C[C@H]1CCCCCc1cccc3c1CN(C3)C(=O)O2)C(=O)NS(=O)(=O)C1CC1 [Example I-7, (1aR,5S,8S,10R,23aR)-5-tert-butyl-N-{(1R,2R)-1-[(cyclopropylsulfonyl)carbamoyl]-2-ethylcyclopropyl}-1a-methyl-3,6,12-trioxo-1a,3,4,5,6,9,10,14,19, 20,21,22,23,23a-tetradecahydro-1H,8H-7,10:13,15-dimethano cyclopropa[n][4,13,2,8, 11]benzodioxatriaza cyclodocosine-8(12H)-carboxamide] | 2.2 | 0.02 | 4 | 27 | 8.7 |
| C=C[C@@H]1C[C@]1(NC(=O)[C@@H]1C[C@@H]2CN1C(=O)[C@H](C(C)(C)C)NC(=O)O[C@]1(C)C[C@H]1CCC/C=C/c1cccc3c1CN(C3)C(=O)O2)C(=O)NS(=O)(=O)C1(C)CC1 [Example I-32, (1aR,5S,8S,10R,19E,23aR)-5-tert-butyl-N-[(1R,2S)-2-ethenyl-1-{[(1-methylcyclopropyl)sulfonyl]carbamoyl}cyclopropyl]-1a-methyl-3,6,12-trioxo-1a,3,4,5,6,9, 10,14,21,22,23,23a-dodecahydro-1H,8H-7,10:13,15-dimethanocyclopropa [n][4,13,2,8,11]benzo dioxatriazacyclo docosine-8(12H)-carboxamide] | 1 | 0.03 | 1 | 11 | 1.8 |
| C=C[C@@H]1C[C@]1(NC(=O)[C@@H]1C[C@@H]2CN1C(=O)[C@H](C1CCCC1)NC(=O)O[C@]1(C)C[C@H]1CCC/C=C/c1cccc3c1CN(C3)C(=O)O2)C(=O)NS(=O)(=O)C1CC1 [Example I-12, (1aR,5S,8S,10R,19E,23aR)-5-cyclopentyl-N-{(1R,2S)-1-[(cyclopropylsulfonyl)carbamoyl]-2-ethenylcyclopropyl}-1a-methyl-3,6,12-trioxo-1a,3,4,5,6,9,10, 14,21,22,23,23a-dodecahydro-1H,8H-7,10:13,15-dimethano cyclopropa[n][4,13,2,8, 11]benzodioxatriaza cyclodocosine-8(12H)-carboxamide] | 1.4 | 0.02 | 5 | 19 | 12 |
| C=C[C@@H]1C[C@]1(NC(=O)[C@@H]1C[C@@H]2CN1C(=O)[C@H](C(C)(C)C)NC(=O)O[C@]1(C)C[C@H]1CCCCCc1nc3ccc(OC)cc3cc1O2)C(=O)NS(=O)(=O)C1CC1 [Example I-10, (1aR,5S,8S,10R,22aR)-5-tert-butyl-N-{(1R,2S)-1-[(cyclopropylsulfonyl)carbamoyl]-2-ethenylcyclopropyl}-14-methoxy-1a-methyl-3,6-dioxo-1,1a,3,4,5,6,9,10,18,19,20,21,22, 22a-tetradecahydro-8H-7,10-methanocyclo propa[18,19][1,10,3,6] dioxadiazacyclonona decino[12,11-b] quinoline-8-carboxamide] | 4.2 | 0.02 | 4 | 10 | 0.2 |
| CC[C@@H]1C[C@]1(NC(=O)[C@@H]1C[C@@H]2CN1C(=O)[C@H](C1CCCC1)NC(=O)O[C@]1(C)C[C@H]1CC/C=C/Cn1c(nc3cc(C)ccc3c1=O)O2)C(=O)NS(=O)(=O)C1CC1 [Example I-31, (1aR,5S,8S,10R,20E,23aR)-5-cyclopentyl-N-{(1R,2R)-1-[(cyclopropylsulfonyl)carbamoyl]-2-ethylcyclopropyl}-1a,14-dimethyl-3,6,17-trioxo-1,1a,3,4,5,6,9,10,19,22,23,23a-dodecahydro-8H,17H-7,10-methanocyclo propa[18,19][1,10,3,6, 12]dioxatriazacyclo nonadecino[11,12-b]quinazoline-8-carboxamide] | 13.3 | 0.1 | 4 | 10 | 5.3 |
| C=C[C@@H]1C[C@]1(NC(=O)[C@@H]1C[C@@H]2CN1C(=O)[C@H](C1CCCC1)NC(=O)O[C@]1(C)C[C@H]1CCCCCc1nc3cccc(OC)c3nc1O2)C(=O)NS(=O)(=O)C1CC1 [Example I-30, (1aR,5S,8S,10R,22aR)-5-cyclopentyl-N-{(1R,2S)-1-[(cyclopropylsulfonyl)carbamoyl]-2-ethenylcyclopropyl}-13-methoxy-1a-methyl-3,6-dioxo-1,1a,3,4,5,6,9,10,18,19,20,21,22,22a-tetradecahydro-8H-7,10-methanocyclo propa[18,19][1,10,3,6] dioxadiazacyclonona decino[11,12-b]quinoxaline-8-carboxamide] | 1.9 | 0.02 | 1 | 5 | 2.2 |
| C=C[C@@H]1C[C@]1(NC(=O)[C@@H]1C[C@@H]2CN1C(=O)[C@H](C1CCCC1)NC(=O)O[C@]1(C)C[C@H]1CCCCCc1nc3ccccc3nc1O2)C(=O)NS(=O)(=O)C1(C)CC1 [Example I-29, (1aR,5S,8S,10R,22aR)-5-cyclopentyl-N-[(1R,2S)-2-ethenyl-1-{[(1-methylcyclopropyl)sulfonyl]carbamoyl}cyclopropyl]-1a-methyl-3,6-dioxo-1,1a,3,4,5,6,9,10,18,19, 20,21,22,22a-tetradecahydro-8H-7,10-methanocyclo propa[18,19][1,10,3,6] dioxadiazacyclonona decino[11,12-b]quinoxaline-8-carboxamide] | 1.7 | 0.04 | 3 | 9 | 3.1 |
